Test results as given in paper PMC8088928 (Cancer Science, 2021).

What was measured:
MKN‐45 cells = test: CCK‐8 cytotoxicity / proliferation assay; format: cell-based, human; conditions: for IC50: Homo sapiens, MKN-45, 72 h, read-out: IC50 (cytotoxic activity); for Effect on proliferation of tumor cells (in words): MKN‐45 cells, 72 h, CCK‐8
[1] = molecular target: Recombinant Human Her2/ErbB2 Protein (Homo sapiens, UniProt P04626); test: Microscale thermophoresis; format: binding
Human PD‐L1 Fc Protein = Human PD‐L1 Fc Protein (Homo sapiens, UniProt Q9NZQ7); test: Microscale thermophoresis; format: binding
HER2 kinase = HER2 kinase (Homo sapiens, UniProt P04626); test: Enzyme activity assay of HER2; format: biochemical
Chain of HER2 kinase (P04626 23-1255): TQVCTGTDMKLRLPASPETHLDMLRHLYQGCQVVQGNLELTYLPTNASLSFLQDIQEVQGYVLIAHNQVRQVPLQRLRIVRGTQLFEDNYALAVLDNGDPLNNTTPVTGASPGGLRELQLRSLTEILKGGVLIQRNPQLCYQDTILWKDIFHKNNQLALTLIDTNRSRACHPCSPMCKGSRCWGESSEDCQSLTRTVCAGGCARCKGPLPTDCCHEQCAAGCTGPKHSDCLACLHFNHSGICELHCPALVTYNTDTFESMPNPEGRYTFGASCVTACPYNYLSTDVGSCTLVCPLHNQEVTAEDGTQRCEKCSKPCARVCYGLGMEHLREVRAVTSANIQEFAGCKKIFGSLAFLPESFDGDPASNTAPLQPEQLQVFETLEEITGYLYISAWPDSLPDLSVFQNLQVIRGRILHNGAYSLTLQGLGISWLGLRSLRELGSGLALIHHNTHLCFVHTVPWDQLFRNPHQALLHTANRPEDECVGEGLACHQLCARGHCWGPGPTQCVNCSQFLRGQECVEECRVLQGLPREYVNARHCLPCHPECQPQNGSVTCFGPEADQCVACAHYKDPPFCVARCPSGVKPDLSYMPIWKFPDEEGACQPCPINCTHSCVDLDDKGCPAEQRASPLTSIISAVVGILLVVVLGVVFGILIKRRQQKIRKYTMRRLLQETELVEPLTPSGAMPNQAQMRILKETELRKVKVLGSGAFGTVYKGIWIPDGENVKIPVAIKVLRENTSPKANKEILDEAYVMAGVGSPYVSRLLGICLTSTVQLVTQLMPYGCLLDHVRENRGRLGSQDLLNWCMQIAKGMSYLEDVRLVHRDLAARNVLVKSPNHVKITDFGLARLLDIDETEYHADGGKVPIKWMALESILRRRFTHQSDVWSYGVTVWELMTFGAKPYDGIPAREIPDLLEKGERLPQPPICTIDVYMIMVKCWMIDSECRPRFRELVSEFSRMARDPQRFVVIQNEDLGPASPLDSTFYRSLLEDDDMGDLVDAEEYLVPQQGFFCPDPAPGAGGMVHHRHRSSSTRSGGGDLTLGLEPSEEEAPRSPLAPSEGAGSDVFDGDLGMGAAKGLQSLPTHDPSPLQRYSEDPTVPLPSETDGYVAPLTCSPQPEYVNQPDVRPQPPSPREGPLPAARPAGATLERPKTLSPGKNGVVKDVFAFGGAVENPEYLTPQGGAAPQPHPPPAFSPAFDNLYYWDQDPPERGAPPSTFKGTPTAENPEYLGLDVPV

Chain of Human PD‐L1 Fc Protein (Q9NZQ7 19-238 limits assumed): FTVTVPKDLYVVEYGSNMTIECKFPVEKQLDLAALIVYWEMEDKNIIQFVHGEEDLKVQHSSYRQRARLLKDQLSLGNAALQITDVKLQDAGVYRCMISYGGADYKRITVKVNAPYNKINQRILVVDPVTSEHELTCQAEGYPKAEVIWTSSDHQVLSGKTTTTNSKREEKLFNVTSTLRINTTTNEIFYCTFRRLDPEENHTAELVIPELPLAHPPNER
Chain of Recombinant Human Her2/ErbB2 Protein (P04626 23-1255): as the sequence (P04626 23-1255) above

Kd [1] | Kd (Human PD‐L1 Fc Protein) | IC50 (HER2 kinase) | Structure (SMILES) | IC50 (MKN‐45 cells) | Effect on proliferation of tumor cells (in words) (MKN‐45 cells)
3700 nM | – | – | O=c1c(-c2ccc(O)cc2)coc2cc(O)ccc12 [Daidzein] | 21500 nM | potential antiproliferative effects
– | 355 nM | – | COc1ccc(-c2coc3cc(O)ccc3c2=O)cc1 [Formononetin] | – | could not inhibit proliferation of tumor cells
– | 667 nM | – | COc1cc(-c2oc3cc(O)cc(O)c3c(=O)c2O)ccc1O [Isorhamnetin] | 10800 nM | potential antiproliferative effects
490 nM | – | 570 nM | O=c1c(O)c(-c2ccc(O)c(O)c2)oc2cc(O)cc(O)c12 [Quercetin] | 19300 nM | potential antiproliferative effects
